Measurements: patent US20250129044A1 (priority 2021, published 2025)
Structures can show the parent of a compound that is named as a salt.

These molecules were tested against sodium channel isoforms (Homo sapiens, UniProt P35498). Details: area under the sodium current trace, step from −120 mV to 0 mV, HEK cells.
Format: cell-based
Protocol: The sodium channel isoforms of interest are stably expressed in Human Embryonic Kidney Cells and the currents that flow through those channels in response to a depolarizing voltage clamp step from −120 mV to 0 mV are measured in the presence of increasing concentrations of the chemical agents. The area under the sodium current trace which correlates to the magnitude of sodium flux through the cell membrane is used to quantify the effects on gating of the channels. Other parameters that are measured in the assay include the peak current, time constant of open state inactivation and the voltage dependence of steady state inactivation properties. The concentration responses are used to determine potency of each chemical agents effects on modulating the sodium channel isoform gating. Such techniques are known to those skilled in the art, and may be developed, using current technologies, into low or medium throughput assays for evaluating compounds for their ability to modulate sodium channel behaviour.
`CC(C)c1ncc(C(=O)Nc2c(-c3ccccc3)ccnc2C2CCCO2)cn1` (racemic) [Example 11, (±)-2-isopropyl-N-(4-phenyl-2-(tetrahydrofuran-2-yl)pyridin-3-yl)pyrimidine-5-carboxamide] was tested, and the “Empirical Emax” value was “+ (+ indicates a value less than 2.0 μM)”. With `CC(C)c1ncc(C(=O)Nc2c(-c3ccccc3)ccnc2C23CCOCC2C3)cn1` (racemic) [Example 12, (±)—N-(2-(3-oxabicyclo[4.1.0]heptan-6-yl)-4-phenylpyridin-3-yl)-2-isopropylpyrimidine-5-carboxamide] the “Empirical Emax” value was “+ (+ indicates a value less than 2.0 μM)”. With `CC(C)c1ncc(C(=O)Nc2c(-c3ccccc3)ccnc2C2CCCN2C(=O)OC(C)(C)C)cn1` (racemic) [Example 13, (±)-tert-butyl 2-(3-(2-isopropylpyrimidine-5-carboxamido)-4-phenylpyridin-2-yl)pyrrolidine-1-carboxylate] the “Empirical Emax” value was “+ (+ indicates a value less than 2.0 μM)”. In the case of `CC(C)c1ncc(C(=O)Nc2c(-c3ccccc3F)ccnc2C2CCCC(F)(F)CC2)cn1` (racemic) [Example 37, (±)-N-(2-(4,4-difluorocycloheptyl)-4-(2-fluorophenyl)pyridin-3-yl)-2-isopropylpyrimidine-5-carboxamide], the “Empirical Emax” value is reported as “+++ (+++ indicates a value from 5.0 up to 7.5 μM)”. `CC(C)c1ncc(C(=O)Nc2c(-c3ccccc3F)ccnc2C2CC(F)(F)CCN2)cn1` (racemic) [Example 41, (±)—N-[2-(4,4-difluoro-2-piperidyl)-4-(2-fluorophenyl)-3-pyridyl]-2-isopropyl-pyrimidine-5-carboxamide hydrochloric acid salt] was tested, and the “Empirical Emax” value was “++ (++ indicates a value from 2.0 up to 5.0 μM)”. `CC(C)c1ncc(C(=O)Nc2c(-c3ccccc3F)ccnc2C2CCCN2C)cn1` (racemic) [Example 42, (±)—N-(4-(2-fluorophenyl)-2-(1-methylpyrrolidin-2-yl)pyridin-3-yl)-2-isopropylpyrimidine-5-carboxamide] was tested, and the “Empirical Emax” value was “+ (+ indicates a value less than 2.0 μM)”. In the case of `CC(C)c1ncc(C(=O)Nc2c(-c3ccccc3F)ccnc2C2CC(F)(F)CCN2C)cn1` (racemic) [Example 43], the “Empirical Emax” value is reported as “++ (++ indicates a value from 2.0 up to 5.0 μM)”. In the case of `O=C(Nc1c(-c2ccccc2F)ccnc1C1CCC(F)(F)CC1)c1cnn(C2CCC2)c1` [Example 1, 1-cyclobutyl-N-[2-(4,4-difluorocyclohexyl)-4-(2-fluorophenyl)-3-pyridyl]pyrazole-4-carboxamide], the “Empirical Emax” value is reported as “++++ (++++ indicates a value greater than 7.5)”. In the case of `CN(C)c1ncc(C(=O)Nc2c(-c3ccccc3F)ccnc2C2CCC(F)(F)CC2)cn1` [Example 2, N-[2-(4,4-difluorocyclohexyl)-4-(2-fluorophenyl)-3-pyridyl]-2-(dimethylamino)pyrimidine-5-carboxamide], the “Empirical Emax” value is reported as “++++ (++++ indicates a value greater than 7.5)”. With `CCOc1ncc(C(=O)Nc2c(-c3ccccc3F)ccnc2C2CCC(F)(F)CC2)cn1` [Example 3, N-[2-(4,4-difluorocyclohexyl)-4-(2-fluorophenyl)-3-pyridyl]-2-ethoxy-pyrimidine-5-carboxamide] the “Empirical Emax” value was “++++ (++++ indicates a value greater than 7.5)”. In the case of `CC(C)Oc1ncc(C(=O)Nc2c(-c3ccccc3F)ccnc2C2CCC(F)(F)CC2)cn1` [Example 4, N-[2-(4,4-difluorocyclohexyl)-4-(2-fluorophenyl)-3-pyridyl]-2-isopropoxy-pyrimidine-5-carboxamide], the “Empirical Emax” value is reported as “++++ (++++ indicates a value greater than 7.5)”. With `COC1CCN(C(=O)Nc2c(-c3ccccc3F)ccnc2C2CCC(F)(F)CC2)CC1` [Example 5, N-[2-(4,4-difluorocyclohexyl)-4-(2-fluorophenyl)-3-pyridyl]-4-methoxy-piperidine-1-carboxamide] the “Empirical Emax” value was “+++ (+++ indicates a value from 5.0 up to 7.5 μM)”. `CC(C)c1ncc(C(=O)Nc2c(-c3cc(F)ccc3F)ccnc2C2CCC(F)(F)CC2)cn1` [Example 6, N-[2-(4,4-difluorocyclohexyl)-4-(2,5-difluorophenyl)-3-pyridyl]-2-isopropyl-pyrimidine-5-carboxamide] was tested, and the “Empirical Emax” value was “+++ (+++ indicates a value from 5.0 up to 7.5 μM)”. With `CC(C)Oc1ncc(C(=O)Nc2c(-c3cc(F)ccc3F)ccnc2C2CCC(F)(F)CC2)cn1` [Example 7, N-[2-(4,4-difluorocyclohexyl)-4-(2,5-difluorophenyl)-3-pyridyl]-2-isopropoxy-pyrimidine-5-carboxamide] the “Empirical Emax” value was “++++ (++++ indicates a value greater than 7.5)”. In the case of `COc1ccc(C(=O)Nc2c(-c3cc(F)ccc3F)ccnc2C2CCC(F)(F)CC2)cn1` [Example 8, N-[2-(4,4-difluorocyclohexyl)-4-(2,5-difluorophenyl)-3-pyridyl]-6-methoxy-pyridine-3-carboxamide], the “Empirical Emax” value is reported as “+++ (+++ indicates a value from 5.0 up to 7.5 μM)”. In the case of `CC(C)c1ncc(C(=O)Nc2c(-c3cc(F)ccc3F)ccnc2C2CCC(F)(F)CO2)cn1` (stereo not drawn) [Example 9, N-[4-(2,5-difluorophenyl)-2-(5,5-difluorotetrahydropyran-2-yl)-3-pyridyl]-2-isopropyl-pyrimidine-5-carboxamide], the “Empirical Emax” value is reported as “+++ (+++ indicates a value from 5.0 up to 7.5 μM)”. `CC(C)c1ncc(C(=O)Nc2c(-c3ccccc3)ccnc2C2CCOCC2)cn1` [Example 10, 2-isopropyl-N-(4-phenyl-2-(tetrahydro-2H-pyran-4-yl)pyridin-3-yl)pyrimidine-5-carboxamide] was tested, and the “Empirical Emax” value was “++ (++ indicates a value from 2.0 up to 5.0 μM)”. For `CC(C)c1ncc(C(=O)Nc2c(-c3ccccc3F)ccnc2C2CCOCC2)cn1` [Example 14, N-(4-(2-fluorophenyl)-2-(tetrahydro-2H-pyran-4-yl)pyridin-3-yl)-2-isopropylpyrimidine-5-carboxamide], the “Empirical Emax” value was “+++ (+++ indicates a value from 5.0 up to 7.5 μM)”. With `CC(C)c1ncc(C(=O)Nc2c(-c3ccccc3F)ccnc2C2CCC(F)(F)CC2)cn1` [Example 15, N-[2-(4,4-difluorocyclohexyl)-4-(2-fluorophenyl)-3-pyridyl]-2-isopropyl-pyrimidine-5-carboxamide] the “Empirical Emax” value was “++++ (++++ indicates a value greater than 7.5)”. In the case of `CC(C)c1ncc(C(=O)Nc2c(-c3ccccc3F)ccnc2C2CCCOC2)cn1` (stereo not drawn) [Example 16, N-[4-(2-fluorophenyl)-2-tetrahydropyran-3-yl-3-pyridyl]-2-isopropyl-pyrimidine-5-carboxamide], the “Empirical Emax” value is reported as “++ (++ indicates a value from 2.0 up to 5.0 μM)”. With `CC(C)c1ncc(C(=O)Nc2c(-c3ccccc3F)ccnc2C2CCCCC2)cn1` [Example 17, N-[2-cyclohexyl-4-(2-fluorophenyl)-3-pyridyl]-2-isopropyl-pyrimidine-5-carboxamide] the “Empirical Emax” value was “+++ (+++ indicates a value from 5.0 up to 7.5 μM)”. `CC(C)c1ncc(C(=O)Nc2c(-c3ccccc3F)ccnc2C2CCCCO2)cn1` (stereo not drawn) [Example 18, N-[4-(2-fluorophenyl)-2-tetrahydropyran-2-yl-3-pyridyl]-2-isopropyl-pyrimidine-5-carboxamide] was tested, and the “Empirical Emax” value was “+++ (+++ indicates a value from 5.0 up to 7.5 μM)”. For `CC(C)c1ncc(C(=O)Nc2c(-c3ccccc3F)ccnc2C2CC3(C2)CC(F)(F)C3)cn1` [Example 19, N-[2-(2,2-difluorospiro[3.3]heptan-6-yl)-4-(2-fluorophenyl)-3-pyridyl]-2-isopropyl-pyrimidine-5-carboxamide], the “Empirical Emax” value was “++ (++ indicates a value from 2.0 up to 5.0 μM)”. `CC(C)c1ncc(C(=O)Nc2c(-c3ccccc3F)ccnc2C2CC(F)(F)CCN2C(=O)OC(C)(C)C)cn1` (stereo not drawn) [Example 20, tert-butyl 4,4-difluoro-2-[4-(2-fluorophenyl)-3-[(2-isopropylpyrimidine-5-carbonyl)amino]-2-pyridyl]piperidine-1-carboxylate] was tested, and the “Empirical Emax” value was “+ (+ indicates a value less than 2.0 μM)”. With `CC(C)c1ncc(C(=O)Nc2c(-c3ccccc3F)ccnc2[C@H]2CC[C@](O)(C(F)(F)F)CC2)cn1` [Example 21, N-[4-(2-fluorophenyl)-2-[4-hydroxy-4-(trifluoromethyl)cyclohexyl]-3-pyridyl]-2-isopropyl-pyrimidine-5-carboxamide] the “Empirical Emax” value was “+ (+ indicates a value less than 2.0 μM)”. In the case of `CC(C)c1ncc(C(=O)Nc2c(-c3ccccc3F)ccnc2C2CC3(C2)CC3(F)F)cn1` (stereo not drawn) [Example 22, N-[2-(2,2-difluorospiro[2.3]hexan-5-yl)-4-(2-fluorophenyl)-3-pyridyl]-2-isopropyl-pyrimidine-5-carboxamide], the “Empirical Emax” value is reported as “+++ (+++ indicates a value from 5.0 up to 7.5 μM)”. In the case of `CC(C)c1ncc(C(=O)Nc2c(-c3ccccc3F)ccnc2C2C[C@@H]3[C@H](C2)C3(F)F)cn1` (stereo partly drawn) [Example 23, N-[2-[(1R,5S)-6,6-difluoro-3-bicyclo[3.1.0]hexanyl]-4-(2-fluorophenyl)-3-pyridyl]-2-isopropyl-pyrimidine-5-carboxamide], the “Empirical Emax” value is reported as “++++ (++++ indicates a value greater than 7.5)”. In the case of `CC(C)c1ncc(C(=O)Nc2c(-c3ccccc3F)ccnc2C2CCC(F)(F)C2)cn1` (stereo not drawn) [Example 24, N-[2-(3,3-difluorocyclopentyl)-4-(2-fluorophenyl)-3-pyridyl]-2-isopropyl-pyrimidine-5-carboxamide], the “Empirical Emax” value is reported as “++++ (++++ indicates a value greater than 7.5)”. With `CC(C)c1ncc(C(=O)Nc2c(-c3ccccc3F)ccnc2C2CCCC(F)(F)C2)cn1` (stereo not drawn) [Example 26, N-[2-(3,3-difluorocyclohexyl)-4-(2-fluorophenyl)-3-pyridyl]-2-isopropyl-pyrimidine-5-carboxamide] the “Empirical Emax” value was “+++ (+++ indicates a value from 5.0 up to 7.5 μM)”. With `CC(C)c1ncc(C(=O)Nc2c(-c3ccccc3F)ccnc2C2CCC3(C2)CC3(F)F)cn1` (stereo not drawn) [Example 27, N-[2-(2,2-difluorospiro[2.4]heptan-6-yl)-4-(2-fluorophenyl)-3-pyridyl]-2-isopropyl-pyrimidine-5-carboxamide] the “Empirical Emax” value was “+++ (+++ indicates a value from 5.0 up to 7.5 μM)”.
